From PubChem BioAssay AID248 (DTP/NCI, 2004)
Values joined by “and” are separate entries in the source; they are usually repeats but may differ in a detail not shown here. Equal entries are not always repeated. Toxic doses and inconclusive results are not listed. No stated cut-off is given here; in the data, active means T/C of 150% or more; inactive means T/C below 125%.

Tested on: L1210 leukemia ip in BDF1 mice, survival T/C
Assay: NCI In Vivo Anticancer Drug Screen. Data for tumor model L1210 Leukemia (intraperitoneal) in B6D2F1 (BDF1) mice
Conditions: endpoint: mean survival time, higher = longer survival
How it was run: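 Read-out is survival time, reported as the treated-group measurement over the vehicle-control measurement.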

[1] = dose: 100.0 mg/kg/injection, schedule: Q04DX002 (ip), vehicle: Klucel (hydroxypropylcellulose) (HPC)
[2] = dose: 200.0 mg/kg/injection, schedule: Q04DX002 (ip), vehicle: Klucel (hydroxypropylcellulose) (HPC)
[3] = dose: 100.0 mg/kg/injection, schedule: Q04DX003 (ip), vehicle: Klucel (hydroxypropylcellulose) (HPC)
[4] = dose: 200.0 mg/kg/injection, schedule: Q04DX003 (ip), vehicle: Klucel (hydroxypropylcellulose) (HPC)
[5] = dose: 400.0 mg/kg/injection, schedule: Q04DX003 (ip), vehicle: Klucel (hydroxypropylcellulose) (HPC)
[6] = dose: 100.0 mg/kg/injection, schedule: Q04DX002 (ip), vehicle: saline with Tween-80
[7] = dose: 200.0 mg/kg/injection, schedule: Q04DX002 (ip), vehicle: saline with Tween-80
[8] = dose: 100.0 mg/kg/injection, schedule: Q01DX001 (ip), vehicle: saline with Tween-80
[9] = dose: 100.0 mg/kg/injection, schedule: Q01DX009 (ip), vehicle: saline with Tween-80
[10] = dose: 100.0 mg/kg/injection, schedule: Q04DX003 (ip), vehicle: saline with Tween-80
[11] = dose: 200.0 mg/kg/injection, schedule: Q01DX001 (ip), vehicle: saline with Tween-80
[12] = dose: 200.0 mg/kg/injection, schedule: Q04DX003 (ip), vehicle: saline with Tween-80
[13] = dose: 400.0 mg/kg/injection, schedule: Q01DX001 (ip), vehicle: saline with Tween-80
[14] = dose: 400.0 mg/kg/injection, schedule: Q04DX003 (ip), vehicle: saline with Tween-80
[15] = dose: 100.0 mg/kg/injection, schedule: Q04DX003 (ip), vehicle: saline

Measured: T/C

O=[N+]([O-])c1cc(S(=O)(=O)OCC2CO2)ccc1Cl (stereo not given)
inactive: dose: 6.25 mg/kg/injection, schedule: Q04DX003 (ip), vehicle: Klucel (hydroxypropylcellulose) (HPC) 98 % of control | dose: 12.5 mg/kg/injection, schedule: Q01DX009 (ip), vehicle: Klucel (hydroxypropylcellulose) (HPC) 96 % of control | dose: 12.5 mg/kg/injection, schedule: Q04DX003 (ip), vehicle: Klucel (hydroxypropylcellulose) (HPC) 98 % of control | dose: 25.0 mg/kg/injection, schedule: Q01DX009 (ip), vehicle: Klucel (hydroxypropylcellulose) (HPC) 90 % of control | dose: 25.0 mg/kg/injection, schedule: Q04DX003 (ip), vehicle: Klucel (hydroxypropylcellulose) (HPC) 101 % of control | dose: 50.0 mg/kg/injection, schedule: Q04DX003 (ip), vehicle: Klucel (hydroxypropylcellulose) (HPC) 103 % of control

O=S1(=O)CC(c2ccccc2)(c2ccccc2)N1
inactive: [1] 108 % of control | [2] 112 % of control | dose: 400.0 mg/kg/injection, schedule: Q04DX002 (ip), vehicle: Klucel (hydroxypropylcellulose) (HPC) 96 % of control

O=C(O)COc1ccc(Cl)cc1C(=O)O
inactive: [3] 96 % of control | [4] 104 % of control | [5] 101 % of control

CCCCC(=O)C1CN(C(C)(C)C)C1
inactive: dose: 5.0 mg/kg/injection, schedule: Q01DX001 (ip), vehicle: saline 102 % of control | dose: 5.0 mg/kg/injection, schedule: Q01DX009 (ip), vehicle: saline 104 % of control | dose: 10.0 mg/kg/injection, schedule: Q01DX001 (ip), vehicle: saline 97 % of control | dose: 10.0 mg/kg/injection, schedule: Q01DX009 (ip), vehicle: saline 111 % of control | dose: 20.0 mg/kg/injection, schedule: Q01DX001 (ip), vehicle: saline 102 % of control | dose: 20.0 mg/kg/injection, schedule: Q01DX009 (ip), vehicle: saline 97 % of control

COC1=C(C(=O)O)P(C)(=O)CC1 (stereo not given)
inactive: dose: 50.0 mg/kg/injection, schedule: Q04DX002 (ip), vehicle: saline with Tween-80 95 % of control | [6] 98 % of control | [7] 95 % of control

CN1CCCCC(c2ccccc2)(c2ccccc2)C1=N
inactive: dose: 37.5 mg/kg/injection, schedule: Q01DX001 (ip), vehicle: saline 100 % of control

Cc1cscc(C)c1=S
inactive: dose: 6.25 mg/kg/injection, schedule: Q01DX009 (ip), vehicle: saline + alcohol 106 % of control | dose: 12.5 mg/kg/injection, schedule: Q01DX009 (ip), vehicle: saline + alcohol 105 % of control | dose: 25.0 mg/kg/injection, schedule: Q01DX009 (ip), vehicle: saline + alcohol 92 % of control

CCN(CC)CC1CO1 (stereo not given)
inactive: dose: 7.5 mg/kg/injection, schedule: Q01DX009 (ip), vehicle: saline 102 % of control | dose: 15.0 mg/kg/injection, schedule: Q01DX009 (ip), vehicle: saline 97 % of control

COc1cccc(C(O)c2cnc(C)n2Cc2ccccc2)c1 (stereo not given)
inactive: [8] 94 % of control | [9] 93 % of control and 107 % of control | [6] 97 % of control and 100 % of control | [10] 101 % of control | [11] 100 % of control | dose: 200.0 mg/kg/injection, schedule: Q01DX009 (ip), vehicle: saline with Tween-80 98 % of control and 99 % of control | [7] 102 % of control and 107 % of control | [12] 93 % of control | [13] 103 % of control | dose: 400.0 mg/kg/injection, schedule: Q01DX009 (ip), vehicle: saline with Tween-80 98 % of control and 108 % of control | dose: 400.0 mg/kg/injection, schedule: Q04DX002 (ip), vehicle: saline with Tween-80 105 % of control and 88 % of control | [14] 98 % of control

O=C(Nc1ncc([N+](=O)[O-])s1)C(F)(F)F
inactive: dose: 50.0 mg/kg/injection, schedule: Q01DX001 (ip), vehicle: saline 97 % of control | dose: 100.0 mg/kg/injection, schedule: Q01DX001 (ip), vehicle: saline 92 % of control | dose: 200.0 mg/kg/injection, schedule: Q01DX001 (ip), vehicle: saline 90 % of control | dose: 400.0 mg/kg/injection, schedule: Q01DX001 (ip), vehicle: saline 105 % of control

CN(C)C(=O)Nc1cccc(OC(=O)NCCCl)c1
inactive: [10] 96 % of control | [12] 94 % of control | [14] 94 % of control

CCCCCCCCCCCCNC(=O)C[n+]1cccc(C(N)=O)c1
inactive: [15] 96 % of control

NN1C(=O)c2c(Cl)c(Cl)c(Cl)c(Cl)c2C1=O
inactive: [8] 87 % of control | [11] 87 % of control | [13] 93 % of control

COC(=O)/C(=C/c1ccccc1)CBr
inactive: dose: 50.0 mg/kg/injection, schedule: Q01DX009 (ip), vehicle: saline with Tween-80 94 % of control | [9] 102 % of control

CC1(C#N)CC(c2ccccc2)Nc2ccccc2N1 (stereo not given)
inactive: dose: 100.0 mg/kg/injection, schedule: Q01DX009 (ip), vehicle: Klucel (hydroxypropylcellulose) (HPC) 92 % of control | [3] 98 % of control | dose: 200.0 mg/kg/injection, schedule: Q01DX009 (ip), vehicle: Klucel (hydroxypropylcellulose) (HPC) 100 % of control | [4] 96 % of control | dose: 264.0 mg/kg/injection, schedule: Q04DX003 (ip), vehicle: Klucel (hydroxypropylcellulose) (HPC) 96 % of control and 97 % of control | dose: 400.0 mg/kg/injection, schedule: Q01DX009 (ip), vehicle: Klucel (hydroxypropylcellulose) (HPC) 97 % of control

O=[N+]([O-])c1cc(Cl)c(Cl)cc1N1CCCC1
inactive: [3] 93 % of control | [4] 88 % of control | [5] 101 % of control

COc1cc(OC)c(OC)cc1CNC1CCCCCCC1
inactive: dose: 25.0 mg/kg/injection, schedule: Q04DX002 (ip), vehicle: saline 102 % of control | dose: 50.0 mg/kg/injection, schedule: Q04DX002 (ip), vehicle: saline 91 % of control | dose: 100.0 mg/kg/injection, schedule: Q04DX002 (ip), vehicle: saline 105 % of control and 115 % of control

ClCC(Br)CBr (stereo not given)
inactive: dose: 75.0 mg/kg/injection, schedule: Q01DX001 (ip), vehicle: saline 106 % of control | dose: 150.0 mg/kg/injection, schedule: Q01DX001 (ip), vehicle: saline 104 % of control

O=C(O)C1CC1c1ccc(Br)cc1 (stereo not given)
inactive: [1] 123 % of control | [2] 100 % of control

NNC(=O)[C@H]1CC[C@H]1C(=O)NN
inactive: dose: 50.0 mg/kg/injection, schedule: Q01DX009 (ip), vehicle: saline 102 % of control | dose: 100.0 mg/kg/injection, schedule: Q01DX009 (ip), vehicle: saline 109 % of control | [15] 103 % of control | dose: 130.0 mg/kg/injection, schedule: Q01DX009 (ip), vehicle: saline 106 % of control | dose: 200.0 mg/kg/injection, schedule: Q01DX009 (ip), vehicle: saline 106 % of control | dose: 200.0 mg/kg/injection, schedule: Q04DX003 (ip), vehicle: saline 104 % of control | dose: 264.0 mg/kg/injection, schedule: Q04DX003 (ip), vehicle: saline 105 % of control and 118 % of control and 91 % of control
